Data as given in patent US20230181536A1, “ANTICANCER COMBINATION THERAPY WITH N-(1-ACRYLOYL-AZETIDIN-3-YL)-2-((1H-INDAZOL-3-YL)AMINO)METHYL)-1H-IMIDAZOLE-5-CARBOXAMIDE INHIBITOR OF KRAS-G12C” (TAIHO PHARMACEUTICAL CO., LTD., priority 2020, published 2023).

target: T1, KRAS G12C (Homo sapiens, UniProt P01116, G12C); test: Inhibitory activity on the KRAS G12C nucleotide (GDP-GTP) exchange reaction; format: biochemical; details: Bodipy FL GDP-bound KRAS G12C 25 nM; preincubation at 25° C. for 4 hours; SOS1 100 nM, GppNHp 1 μM, reaction for 30 minutes
T1 construct: KRAS G12C (amino acid region: 1-169)
In short: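 Bodipy FL-GDP-loaded KRAS G12C (aa 1-169, 25 nM) preincubated with compound 4 h at 25 °C in pH 7.5 Tris buffer, 5% DMSO; exchange started with SOS1 (aa 564-1049, 100 nM) and 1 μM GppNHp for 30 min. Fluorescence change (ex 485/em 520 nm) normalized to DMSO and no-GppNHp controls; IC50 calculated.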

T1 sequence (P01116 1-169 isoform P01116-2 G12C): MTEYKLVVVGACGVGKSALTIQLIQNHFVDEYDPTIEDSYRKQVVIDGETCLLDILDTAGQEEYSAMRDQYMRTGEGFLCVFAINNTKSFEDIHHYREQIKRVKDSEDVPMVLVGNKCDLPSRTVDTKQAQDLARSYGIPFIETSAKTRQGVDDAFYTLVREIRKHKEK

Point of comparison: C=CC(=O)N1C[C@@H](C)[C@@H](NC(=O)c2c(Cl)nc(CNc3n[nH]c4cc(Cl)c(C(C)(C)C)cc34)n2C)C1 [Example 78, N-((3R,4R)-1-acryloyl-4-methylpyrrolidin-3-yl)-2-(((5-(tert-butyl)-6-chloro-1H-indazol-3-yl)amino)methyl)-4-chloro-1-methyl-1H-imidazole-5-carboxamide], IC50 20 nM. Against it:
- C=CC(=O)N1C[C@@H](C)[C@@H](NC(=O)c2c(F)nc(CNc3n[nH]c4cc(Cl)c(C(C)(C)C)cc34)n2C)C1 [Example 74, N-((3R,4R)-1-acryloyl-4-methylpyrrolidin-3-yl)-2-(((5-(tert-butyl)-6-chloro-1H-indazol-3-yl)amino)methyl)-4-fluoro-1-methyl-1H-imidazole-5-carboxamide] — 1.8-fold higher, 36 nM
- C=CC(=O)N1C[C@H](NC(=O)c2c(F)nc(CNc3n[nH]c4cc(Cl)c(C(C)(C)C)cc34)n2C)[C@@H](F)C1 [Example 75, N-((3S,4S)-1-acryloyl-4-fluoropyrrolidin-3-yl)-2-(((5-(tert-butyl)-6-chloro-1H-indazol-3-yl)amino)methyl)-4-fluoro-1-methyl-1H-imidazole-5-carboxamide] — within 1.5-fold, 16 nM
- C=CC(=O)N1C[C@H](NC(=O)c2c(Cl)nc(CNc3n[nH]c4cc(Cl)c(C(C)(C)C)cc34)n2C)[C@@H](F)C1 [Example 76, N-((3S,4S)-1-acryloyl-4-fluoropyrrolidin-3-yl)-2-(((5-(tert-butyl)-6-chloro-1H-indazol-3-yl)amino)methyl)-4-chloro-1-methyl-1H-imidazole-5-carboxamide] — 1.5-fold lower, 13 nM
- C=CC(=O)N1CC[C@@H](N(C)C(=O)c2cnc(CNc3n[nH]c4cc(Cl)c(C(C)(C)C)cc34)n2C)C1 [Example 77, (R)-N-(1-acryloylpyrrolidin-3-yl)-2-(((5-(tert-butyl)-6-chloro-1H-indazol-3-yl)amino)methyl)-N,1-dimethyl-1H-imidazole-5-carboxamide] — 7.1-fold higher, 142 nM
- Cc1nc(CNc2n[nH]c3cc(Cl)c(C(C)(C)C)cc23)n(C(C)C)c1C(=O)NC1CN(C(=O)/C=C/CN2CCCCC2)C1 [Example 79, (E)-2-(((5-(tert-butyl)-6-chloro-1H-indazol-3-yl)amino)methyl)-1-isopropyl-4-methyl-N-(1-(4-(piperidin-1-yl)but-2-enoyl)azetidin-3-yl)-1H-imidazole-5-carboxamide] — 6.1-fold higher, 122 nM
- Cc1nc(CNc2n[nH]c3cc(Cl)c(C(C)(C)C)cc23)n(C)c1C(=O)NC1CN(C(=O)/C=C/CN(C)C)C1 [Example 80, (E)-2-(((5-(tert-butyl)-6-chloro-1H-indazol-3-yl)amino)methyl)-N-(1-(4-(dimethylamino)but-2-enoyl)azetidin-3-yl)-1,4-dimethyl-1H-imidazole-5-carboxamide] — 3.1-fold higher, 63 nM
- C/C=C/C(=O)N1CC(NC(=O)c2c(C)nc(CNc3n[nH]c4cc(Cl)c(C(C)(C)C)cc34)n2C(C)C)C1 [Example 81, (E)-N-(1-(but-2-enoyl)azetidin-3-yl)-2-(((5-(tert-butyl)-6-chloro-1H-indazol-3-yl)amino)methyl)-1-isopropyl-4-methyl-1H-imidazole-5-carboxamide] — 130-fold higher, 2630 nM
- CC#CC(=O)N1CC(NC(=O)c2c(C)nc(CNc3n[nH]c4cc(Cl)c(C(C)(C)C)cc34)n2C(C)C)C1 [Example 82, N-(1-(buty-2-noyl)azetidin-3-yl)-2-(((5-(tert-butyl)-6-chloro-1H-indazol-3-yl)amino)methyl)-1-isopropyl-4-methyl-1H-imidazole-5-carboxamide] — 10-fold higher, 209 nM
- Cc1nc(CNc2n[nH]c3cc(Cl)c(C(C)(C)C)cc23)n(C(C)C)c1C(=O)NC1CN(C(=O)/C=C\Cl)C1 [Example 83, (Z)-2-(((5-(tert-butyl)-6-chloro-1H-indazol-3-yl)amino)methyl)-N-(1-(3-chloroacryloyl)azetidin-3-yl)-1-isopropyl-4-methyl-1H-imidazole-5-carboxamide] — 120-fold higher, 2350 nM
- CC(C)n1c(CNc2n[nH]c3cc(Cl)c(C(C)(C)C)cc23)nc(C(F)F)c1C(=O)NC1CN(C(=O)/C=C/CN(C)C)C1 [Example 84, (E)-2-(((5-(tert-butyl)-6-chloro-1H-indazol-3-yl)amino)methyl)-4-(difluoromethyl)-N-(1-(4-(dimethylamino)but-2-enoyl)azetidin-3-yl)-1-isopropyl-1H-imidazole-5-carboxamide] — 3.1-fold higher, 63 nM
- COC/C=C/C(=O)N1CC(NC(=O)c2c(C)nc(CNc3n[nH]c4cc(Cl)c(C(C)(C)C)cc34)n2C(C)C)C1 [Example 85, (E)-2-(((5-(tert-butyl)-6-chloro-1H-indazol-3-yl)amino)methyl)-1-isopropyl-N-(1-(4-methoxybut-2-enoyl)azetidin-3-yl)-4-methyl-1H-imidazole-5-carboxamide] — 9.8-fold higher, 196 nM
- C=CS(=O)(=O)N1CC(NC(=O)c2c(C)nc(CNc3n[nH]c4cc(Cl)c(C(C)(C)C)cc34)n2C(C)C)C1 [Example 86, 2-(((5-(tert-butyl)-6-chloro-1H-indazol-3-yl)amino)methyl)-1-isopropyl-4-methyl-N-(1-(vinylsulfonyl)azetidin-3-yl)-1H-imidazole-5-carboxamide] — 2.9-fold higher, 58 nM
- C=CC(=O)N1CC(NC(=O)c2c(Cl)nc(CNc3n[nH]c4cc(Cl)c(C(C)(C)C)cc34)n2CCCC)C1 [Example 87, N-(1-acryloylazetidin-3-yl)-1-butyl-2-(((5-(tert-butyl)-6-chloro-1H-indazol-3-yl)amino)methyl)-4-chloro-1H-imidazole-5-carboxamide] — within 1.5-fold, 14 nM
- C=CC(=O)N1CC(NC(=O)c2cnc(CNc3n[nH]c4cc(Cl)c(C(C)(C)C)cc34)n2Cc2cc(OC)cc(OC)c2)C1 [Example 88, N-(1-acryloylazetidin-3-yl)-2-(((5-(tert-butyl)-6-chloro-1H-indazol-3-yl)amino)methyl)-1-(3,5-dimethoxybenzyl)-1H-imidazole-5-carboxamide] — 7.9-fold higher, 158 nM
- C=CC(=O)N1CC(NC(=O)c2c(Cl)nc(CNc3n[nH]c4cc(Cl)c(C(C)(C)C)cc34)n2CC(C)C)C1 [Example 89, N-(1-acryloylazetidin-3-yl)-2-(((5-(tert-butyl)-6-chloro-1H-indazol-3-yl)amino)methyl)-4-chloro-1-isobutyl-1H-imidazole-5-carboxamide] — 2.9-fold lower, 7 nM
- C=CC(=O)N1CC(NC(=O)c2c(Cl)nc(CNc3n[nH]c4cc(Cl)c(C(C)(C)C)cc34)n2CCOC)C1 [Example 90, N-(1-acryloylazetidin-3-yl)-2-(((5-(tert-butyl)-6-chloro-1H-indazol-3-yl)amino)methyl)-4-chloro-1-(2-methoxyethyl)-1H-imidazole-5-carboxamide] — 3.3-fold lower, 6 nM
- C=CC(=O)N1CC(NC(=O)c2c(C(F)F)nc(CNc3n[nH]c4cc(Cl)c(C(C)(C)C)cc34)n2C2CCN(C)C2)C1 (stereo not shown) [Example 91, N-(1-acryloylazetidin-3-yl)-2-(((5-(tert-butyl)-6-chloro-1H-indazol-3-yl)amino)methyl)-4-(difluoromethyl)-1-(1-methylpyrrolidin-3-yl)-1H-imidazole-5-carboxamide] — 2.9-fold lower, 7 nM
- C=CC(=O)N1CC(NC(=O)c2c(C(F)F)nc(CNc3n[nH]c4cc(Cl)c(C(C)(C)C)cc34)n2C2CCN(CC)C2)C1 (stereo not shown) [Example 92, N-(1-acryloylazetidin-3-yl)-2-(((5-(tert-butyl)-6-chloro-1H-indazol-3-yl)amino)methyl)-4-(difluoromethyl)-1-(1-ethylpyrrolidin-3-yl)-1H-imidazole-5-carboxamide] — 2-fold lower, 10 nM
